Here are results for three compounds from US4147787A, “4,5,6,7-Tetrahydro-thieno[2,3-c]-and [3,2-c]-pyridines, and therapeutic compositions containing the same” (Parcor, priority 1977, dated 1979).

The subject of data set [1] is thrombus. Kind of data set: Anti-thrombosis properties (metal helix in vena cava inferior, based on Friedman). The following applies: from Table IV. The class given is in vivo, female Wistar rats. An excerpt: The technique used is based on that disclosed by Friedman (Amer. J. Med. Sci., 253, 83, 1967). […] A 1.8 cm long sharp metal helix is introduced in the lumen of the vessel at the level of the renal fork and "screwed" toward the iliac veins. Five hours later, the animal is again anesthetized with ether. […] The helix, together with the thrombus it retains, is taken out after carefully opening the vena cava throughout the length involved; it is then dried by repeated dabbing with filter paper and is weighed a first time. Immediately thereafter, the helix is freed from its thrombus in a physiological saline bath, and is then again dried and weighed. The difference in weight gives the weight of the thrombus. It was found on histological examination that these were white thrombi.
Different groups of 10 rats each are treated by gastric intubation with one of the test derivatives, 48 hours, 24 hours and 2 hours prior to the implantation of the metal helix. Samples were taken five hours after said implantation.
Identical tests were carried out with dipyridamole and acetylsalicylic acid.

The nature of data set [2]: Acute toxicity (LD50, method according to Miller and Tainter). The following applies: mouse, in vivo, mice, intravenous, read-out: LD50 /24h/kg body weight.
The subject of data set [3] is A.D.P. induced blood-platelet aggregation. Kind of data set: A.D.P. induced blood-platelet aggregation. In kind it is in vivo, Wistar rats. To be noted: Rattus norvegicus, po; 100 mg/kg orally, rats, 3 hours after treatment, 10 μM A.D.P. solution; read-out: Percent inhibition of blood-platelet aggregation, A.D.P. How it is done: (§1) A blood sample is taken from the jugular vein of Wistar rats. From this citrated blood and after centifugation, a plasma is reconstituted which contains 600,000 ± 20,000 blood-platelets per ml, which plasma is then used in all aggregation determinations.
(§2) 0.4 ml plasma is placed in a siliconized tube provided with a magnet bar, also siliconized. The tube is introduced into an aggregometer connected to an apparatus which records optical density variations. When light transmission has attained a stable value, 0.5 ml of a solution containing 10 μM A.D.P. (adenosinediphosphate) is added to the tube.
(§3) Blood-platelet aggregation induces an increase of light transmission, followed by a decrease subsequent to the deaggregation phase.
(§4) Different groups of 20 rats each are used, each group being orally administered 100 mg/kg of a test derivative.

Data set [4] has as its system Collagen-induced blood-platelet aggregation. The data set can be described thus: Collagen-induced blood-platelet aggregation. The class given is in vivo, Wistar rats. The following applies: Rattus norvegicus, po; 100 mg/kg orally, rats, 3 hours after treatment; read-out: Percent inhibition of blood-platelet aggregation, Collagen. How it is done:
as §1, §2, §3
The A.D.P. solution is substituted with a collagen (bovine tendon extract) solution.
as §4

Data set [5] relates to rat globules (red corpuscles). Kind of data set: In vitro anti-sludge activity, preventive treatment (protamine sulfate). In kind it is cell-based. How it is done: (§5) Said activity was investigated in vitro and in vivo in rats.
(§6) Thrice washed rat globules are diluted to 1/250 in physiological saline. In each of 5 tubes are placed 0.6 ml of this suspension and 0.2 ml physiological saline. To each tube is then added 0-25-50-100 and 200 μg, respectively, of the test derivative contained in 0.2 ml solution. After incubation for one hour at 37° C., 0.2 ml of a solution containing 125 μg/ml protamine sulfate are added, after which the tube is then incubated again for 0.5 hour at 37° C. The globules of each tube are then examined with a Mallases cell, and the percent free globules and the percent aggregates formed by 2, 3, 4, 5 etc.. globules is then recorded.

The test system of data set [6] is rat globules (red corpuscles). The data set can be described thus: In vitro anti-sludge activity, curative procedure (protamine sulfate). The class given is cell-based. To be noted: 25 μg. How it is done:
as §5, §6
The experiment was repeated according to a "curvative" procedure; the red corpuscles were first contacted with protamine sulfate and, after incubation for 0.5 hour, 0.2 ml containing 25 μg of test derivative were added thereto, which operation is followed by another incubation for one hour at 37° C. The results obtained are reported in Table III, in which the percent agglomerates as a function of size is indicated.

As to `OCCN(CCO)c1nc(N2CCCCC2)c2nc(N(CCO)CCO)nc(N3CCCCC3)c2n1` [dipyridamole], the “anti-thrombosis activity (in words)” value in data set [1] is “no activity”.

`O=C(O)C1Cc2sccc2CN1Cc1ccccc1Cl` (stereo not shown) [Example 23, 5-o-Chlorobenzyl-6-carboxy-4,5,6,7-tetrahydro-thieno[3,2-c]pyridine]: the LD50 at 24 h in data set [2] is 180 mg/kg. Also, in data set [3], the inhibition at 100 mg/kg amounted to 63.9%. Moreover, the inhibition at 100 mg/kg in data set [4] is 95.2%. For the same compound, in data set [5] (25 μg), the “percent agglomerates, size 2” value is listed as 21%; the “percent agglomerates, size 3” value was found to be 16%; the “percent agglomerates, size 4” value is reported as 3%; the “percent agglomerates, size 5” value was 0%. Moreover, in data set [5] (25 μg), the “percent agglomerates, size 6” value stood at 0%; the “percent agglomerates, size 7” value is listed as 0%; the “percent agglomerates, size 8” value turned out to be 0%; the “percent agglomerates, size 9” value is 0%. Further, in data set [5] (25 μg), the “percent agglomerates, size 10” value is 0%; the “percent agglomerates, size 11” value is recorded as 0%; the “percent agglomerates, size 12” value stood at 0%; the “percent agglomerates, size 13” value was found to be 0%. Besides, in data set [5] (25 μg), the “percent free red corpuscles (size of agglomerates 1)” value (from here on “percent free red corpuscles”) was determined as 60%. Further, in data set [5] (50 μg), the “percent agglomerates, size 2” value is reported as 25%; the “percent agglomerates, size 3” value is recorded as 6%; the “percent agglomerates, size 4” value was determined as 4%; the “percent agglomerates, size 5” value is 0%. For the same compound, in data set [5] (50 μg), the “percent agglomerates, size 6” value amounted to 0%; the “percent agglomerates, size 7” value was found to be 0%; the “percent agglomerates, size 8” value came out at 0%; the “percent agglomerates, size 9” value is given as 0%. In data set [5] (50 μg), the “percent agglomerates, size 10” value was 0%; the “percent agglomerates, size 11” value came out at 0%; the “percent agglomerates, size 12” value is recorded as 0%; the “percent agglomerates, size 13” value amounted to 0%. In addition, the “percent free red corpuscles” value in data set [5] (50 μg) was 65%. For the same compound, in data set [5] (100 μg), the “percent agglomerates, size 2” value was 14%; the “percent agglomerates, size 3” value is on record as 5%; the “percent agglomerates, size 4” value amounted to 1%; the “percent agglomerates, size 5” value stood at 0%. Also, in data set [5] (100 μg), the “percent agglomerates, size 6” value is recorded as 0%; the “percent agglomerates, size 7” value worked out at 0%; the “percent agglomerates, size 8” value is 0%; the “percent agglomerates, size 9” value is 0%. Also, in data set [5] (100 μg), the “percent agglomerates, size 10” value is reported as 0%; the “percent agglomerates, size 11” value came out at 0%; the “percent agglomerates, size 12” value came to 0%; the “percent agglomerates, size 13” value was determined as 0%. In addition, the “percent free red corpuscles” value in data set [5] (100 μg) is reported as 78%. In addition, in data set [5] (200 μg), the “percent agglomerates, size 2” value is 11%; the “percent agglomerates, size 3” value was 4%; the “percent agglomerates, size 4” value came to 2%; the “percent agglomerates, size 5” value is reported as 0%. Also, in data set [5] (200 μg), the “percent agglomerates, size 6” value is recorded as 0%; the “percent agglomerates, size 7” value was found to be 0%; the “percent agglomerates, size 8” value is on record as 0%; the “percent agglomerates, size 9” value is on record as 0%. For the same compound, in data set [5] (200 μg), the “percent agglomerates, size 10” value is reported as 0%; the “percent agglomerates, size 11” value is 0%; the “percent agglomerates, size 12” value was found to be 0%; the “percent agglomerates, size 13” value worked out at 0%. For the same compound, the “percent free red corpuscles” value in data set [5] (200 μg) came out at 83%. For the same compound, in data set [6], the “percent agglomerates, size 2” value was determined as 10%; the “percent agglomerates, size 3” value is given as 4%; the “percent agglomerates, size 4” value came to 1%; the “percent agglomerates, size 5” value is 0%. Also, in data set [6], the “percent agglomerates, size 6” value is 0%; the “percent agglomerates, size 7” value was found to be 0%; the “percent agglomerates, size 8” value is recorded as 0%; the “percent agglomerates, size 9” value is recorded as 0%. In data set [6], the “percent agglomerates, size 10” value was 0% and the “percent free red corpuscles” value came out at 85%.

Take `CC(=O)Oc1ccccc1C(=O)O` [acetylsalicylic acid]: the “anti-thrombosis activity (in words)” value in data set [1] is “little activity”.

In general, inhibition refers to the drop in the measured response relative to a control, in per cent.
